Values joined by “and” are separate entries in the source; they are usually repeats but may differ in a detail not shown here. Equal entries are not always repeated.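 Values below derive from 48-hour exposures of cells grown in 96-well plates, with endpoints linearly interpolated between the two concentrations bracketing the appropriate inhibition level. At the GI50, growth is halved. Definition used: TGI = concentration required for complete inhibition of growth.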 *1 amine or outer side, *2 acyl side, *3 side chain or, on linkers, in order; H or OH if unused. Where a SMILES comes first, the peptide text is derived from it. [ ]: non-standard residue; d: D form. X56 = CC[C@H](C)[C@H](OC(=O)[C@@H](C)[C@@H](CC)N[*:1])C(=O)[*:2]; X32 = C[C@H](N[*:1])C(=O)C(C)(C)C(=O)[*:2]; NMeY = CN[C@@H](Cc1ccc(O)cc1)C(=O)O; NMeL = CN[C@@H](CC(C)C)C(=O)O; NMeV = CN[C@H](C(=O)O)C(C)C
How the values were obtained:
Assay in all cases: NCI-60 cell line screen, 48 h
HCT-116 colon = system: HCT-116 colon
ACHN renal = system: ACHN renal
SK-MEL-5 melanoma = system: SK-MEL-5 melanoma
KM12 colon = system: KM12 colon
OVCAR-4 ovarian = system: OVCAR-4 ovarian
NCI-H522 lung = system: NCI-H522 lung
SW-620 colon = system: SW-620 colon
UACC-257 melanoma = system: UACC-257 melanoma
SK-OV-3 ovarian = system: SK-OV-3 ovarian
MCF7 breast = system: MCF7 breast

Row | Structure (SMILES) | TGI (HCT-116 colon) | TGI (ACHN renal) | TGI (SK-MEL-5 melanoma) | TGI (KM12 colon) | TGI (OVCAR-4 ovarian) | TGI (NCI-H522 lung) | TGI (SW-620 colon) | TGI (UACC-257 melanoma) | TGI (SK-OV-3 ovarian) | GI50 (HCT-116 colon) | GI50 (ACHN renal) | GI50 (SK-MEL-5 melanoma) | GI50 (KM12 colon) | GI50 (OVCAR-4 ovarian) | GI50 (NCI-H522 lung) | GI50 (SW-620 colon) | GI50 (UACC-257 melanoma) | GI50 (SK-OV-3 ovarian) | GI50 (MCF7 breast) | TGI (MCF7 breast)
1 | COc1ccc(-c2c(N)[n+]([O-])c3ccccc3[n+]2[O-])cc1OC | > 100 µM | > 100 µM | > 100 µM | > 100 µM | > 100 µM | > 100 µM | > 100 µM | > 100 µM | > 100 µM |  |  |  |  |  |  |  |  |  |  | 
2 | Cc1c2c(cc3c(=O)ccn(CCN(C)C)c13)c(=O)ccn2CCN(C)C | 19.5 µM | 26.3 µM | 34.4 µM | 13.9 µM | 18.6 µM | 21.1 µM | 20.5 µM | 33.7 µM | 37.5 µM |  |  |  |  |  |  |  |  |  |  | 
3 | S=c1nc(N2CCCCC2)ss1 | 42.4 µM | 67 µM | 30.5 µM | 33.9 µM | > 100 µM |  | 72.4 µM | 49.9 µM | > 100 µM |  |  |  |  |  |  |  |  |  |  | 
4 | CC(=O)/C=C/c1ccc(C)cc1 | > 100 µM | > 100 µM | > 100 µM | > 100 µM | > 100 µM | > 100 µM | > 100 µM | > 100 µM | > 100 µM |  |  |  |  |  |  |  |  |  |  | 
5 | Cc1ccc(Sc2sc(-c3ccccc3)nc2[P+](c2ccccc2)(c2ccccc2)c2ccccc2)cc1 | 1.11 µM | 0.933 µM | 0.313 µM | 1.09 µM | 1.09 µM | 1.25 µM | 1.26 µM | 1.11 µM | 0.863 µM | 0.246 µM | 0.268 µM | 0.172 µM | 0.314 µM | 0.305 µM | 0.306 µM | 0.319 µM | 0.328 µM | 0.282 µM |  | 
6 | COc1ccc(N(C)c2c3ccccc3nc3[nH]c4ccccc4c23)cc1 | 1.01 µM | 2.16 µM | 2.24 µM | 1.24 µM |  | 9.55 µM | 26.4 µM | 10 µM | 4.52 µM | 0.279 µM | 0.558 µM | 0.835 µM | 0.296 µM |  | 4.98 µM | 0.582 µM | 3.48 µM | 0.778 µM | 0.168 µM | 0.655 µM
7 | CCOC(=O)c1cc(C(=O)c2cc(OC)c(OC)c(OC)c2)n2ccccc12 | > 100 µM | > 100 µM | > 100 µM | > 100 µM |  | > 37.1 µM | > 100 µM | > 100 µM | > 100 µM | 0.0353 µM | 10.1 µM | 0.0409 µM | 0.0744 µM |  | 0.0577 µM | 0.0504 µM | 35.1 µM | 0.164 µM | 0.0606 µM | > 100 µM
8 | NNC(=O)/C(NC(=O)c1ccccc1)=C(\N)c1ccc(Cl)cc1 | > 100 µM | > 100 µM | > 100 µM | > 100 µM | > 100 µM | > 100 µM | > 100 µM | > 100 µM | > 100 µM |  |  |  |  |  |  |  |  |  |  | 
9 | CC[C@H](C)[C@@H]1OC(=O)[C@@H](C)[C@@H](CC)NC(=O)[C@H](C)NC(=O)C(C)(C)C(=O)[C@H](C)NC(=O)[C@H](Cc2ccc(OC)cc2)N(C)C(=O)[C@H](C(C)C)N(C)C(=O)CNC(=O)[C@H](CC(C)C)N(C)C(=O)CNC1=O (cyclo(A[X56]G[NMeL]G[NMeV][NMeY](Me)[X32])) | 11.3 µM | 0.332 µM and 0.0908 µM | 0.173 µM and 0.462 µM | 91.2 µM |  |  | > 39.1 µM |  |  |  | < 0.0165 µM | 0.135 µM | 0.679 µM |  |  | < 0.0316 µM | 0.0248 µM | 0.024 µM |  | 1.26 µM
10 | C=CCn1cc(C(=O)NC(=O)NCCCCCOC(=O)CCCCCCCCCCC(=O)OCCCCCNC(=O)NC(=O)c2cn(CC=C)c(=O)n(C)c2=O)c(=O)n(C)c1=O | > 100 µM | > 100 µM | > 100 µM | > 100 µM |  | > 100 µM | > 100 µM | > 100 µM | > 100 µM |  |  |  |  |  |  |  |  |  |  | 
11 | COC(=O)C1C(OCc2ccccc2)C2CCC1(OC)C=C2C (centres undefined) | > 100 µM | > 100 µM | > 100 µM | > 100 µM | > 100 µM | > 100 µM | > 100 µM | > 100 µM | > 100 µM |  |  |  |  |  |  |  |  |  |  | 
12 | COc1cc(Nc2nc3ccc(C(F)(F)F)cc3nc2-c2ccccc2)cc(OC)c1OC |  | > 100 µM | 59.4 µM | > 100 µM | > 100 µM | 93.6 µM | > 100 µM | 85 µM | > 100 µM |  |  |  |  |  |  |  |  |  |  | 
13 | Cc1ccc2c(c1)CNc1ccc(C)cc1CN2 | > 100 µM | > 100 µM | > 100 µM | > 100 µM | > 100 µM | > 100 µM | > 100 µM |  | > 100 µM |  |  |  |  |  |  |  |  |  |  | 
14 | O=C(/C=C/c1ccccc1Cl)c1ccc(Cl)cc1Cl | 20.5 µM | 32 µM | 28.6 µM | 24.1 µM | 29.7 µM |  | 3.36 µM | 29.7 µM | 35.6 µM |  |  |  |  |  |  |  |  |  |  | 
15 | C1=Nc2ccccc2C=Nc2ccccc2C=Nc2ccccc2C=Nc2ccccc21.[Cl-].[Pt+2] | > 100 µM | 49 µM | 48.3 µM |  |  | 34.8 µM | > 100 µM |  | 65.9 µM | 25.9 µM | 19 µM | 18.8 µM |  |  | 15.8 µM | 27.6 µM |  | 24.4 µM |  | 
16 | N#CC1CC2(C(=O)C1=O)c1ccccc1-c1ccccc12 (centres undefined) | > 100 µM | > 100 µM | > 100 µM | > 100 µM | > 100 µM | > 100 µM | > 100 µM | > 100 µM | > 100 µM |  |  |  |  |  |  |  |  |  |  | 
17 | Clc1ccc(Nc2ccnc(NCCCNc3ccnc4cc(Cl)ccc34)n2)cc1 | 3.1 µM | 3.04 µM | 2.75 µM |  |  | 3.68 µM | 3.11 µM | 3.43 µM | 2.94 µM | 1.42 µM | 1.57 µM | 1.4 µM |  |  | 1.95 µM | 1.49 µM | 1.87 µM | 1.57 µM |  | 
18 | c1ccc(COC2(OCc3ccccc3)CC3OC2C2NN=NC32)cc1 (centres undefined) |  | > 100 µM | 32.3 µM | 80.7 µM | 36.4 µM |  | 33.6 µM | 36.2 µM | > 100 µM |  |  |  |  |  |  |  |  |  |  | 
19 | O=c1c2ccccc2nc(-c2cccc(Cl)c2)n1NCC1(O)OCC(O)C(O)C1O (centres undefined) | > 100 µM | > 100 µM |  | > 100 µM | > 100 µM | > 100 µM | > 100 µM | > 100 µM | > 100 µM |  |  |  |  |  |  |  |  |  |  | 
20 | COc1cc2c(c(OC)c1OC)-c1ccc(OC)c(=O)cc1[C@@H](N(C)C=O)CC2 | 6.83 µM | > 100 µM | 0.0401 µM | 0.747 µM | > 100 µM | 0.0438 µM | > 100 µM | > 100 µM |  |  |  |  |  |  |  |  |  |  |  | 

Source: PubChem BioAssay (NCI)
